Calls of active or inactive are those of the source. No cut-off for these calls is given here.
How the values were obtained:
Rattus norvegicus [1] = experiment: Anti-ulcerative colitis activity in acetic acid-induced ulcerative colitis Wistar rat model assessed as normal mucosa without cryptic loss in colon at 400 mg/kg, po administrated for 14 days by microscopic analysis; format: functional, organism-based; settings: time 14.0 day
[2] = Toxicity in albino rat assessed as lethality at 2000 mg/kg; format: organism-based; settings: in vivo
[3] = Toxicity in albino rat assessed as toxic signs at 300 mg/kg observed for 14 days; format: organism-based; settings: in vivo, 336 h, time 14 day
[4] = Toxicity in albino rat assessed as toxic symptoms at 300 mg/kg observed for 14 days; format: organism-based; settings: in vivo, 336 h, time 14 day
[5] = Toxicity in albino rat assessed as behavioral changes at 300 mg/kg observed for 14 days; format: organism-based; settings: in vivo, 336 h, time 14 day
Rattus norvegicus [6] = experiment: Anti-ulcerative colitis activity in acetic acid-induced ulcerative colitis Wistar rat model assessed as change in stool uniformity at 400 mg/kg, po administrated for 14 days; format: functional, organism-based; settings: time 14.0 day
Rattus norvegicus [7] = experiment: Anti-ulcerative colitis activity in acetic acid-induced ulcerative colitis Wistar rat model assessed as restoration of normal stool consistency at 400 mg/kg, po administrated for 14 days and measured during initial 4-5 days of treatment; format: functional, organism-based; settings: time 4-5 day
Rattus norvegicus [8] = experiment: Anti-ulcerative colitis activity in acetic acid-induced ulcerative colitis Wistar rat model assessed as decrease in bleeding at 400 mg/kg, po administrated for 14 days and measured during initial 4-5 days of treatment; format: functional, organism-based; settings: time 4-5 day
Rattus norvegicus [9] = experiment: Anti-ulcerative colitis activity in acetic acid-induced ulcerative colitis Wistar rat model assessed as reduction in blood content in feces without change in feces colour at 400 mg/kg, po administrated for 14 days; format: functional, organism-based; settings: time 14.0 day
Rattus norvegicus [10] = experiment: Anti-ulcerative colitis activity in acetic acid-induced ulcerative colitis Wistar rat model assessed as body weight recovery measured as body weight gain at 400 mg/kg, po administrated for 14 days relative to control; format: functional; settings: time 14 day
Rattus norvegicus [11] = experiment: Anti-ulcerative colitis activity in acetic acid-induced ulcerative colitis Wistar rat model assessed as reduction in acetic acid-induced lipid peroxidation by measuring reduction in MDA level in colon at 400 mg/kg, po administrated for 14 days; format: functional, organism-based; settings: time 14.0 day
Rattus norvegicus [12] = experiment: Anti-ulcerative colitis activity in acetic acid-induced ulcerative colitis Wistar rat model assessed as reduction in acetic acid-induced oxidative stress by measuring increase in SOD level in colon at 400 mg/kg, po administrated for 14 days by UV spectrophotometric analysis; format: functional, organism-based; settings: time 14.0 day
Rattus norvegicus [13] = experiment: Anti-ulcerative colitis activity in acetic acid-induced ulcerative colitis Wistar rat model assessed as reduction in diarrhea at 400 mg/kg, po administrated for 14 days and measured during initial 5 to 6 days of treatment; format: functional, organism-based; settings: time 5-6 day
Rattus norvegicus [14] = experiment: Anti-ulcerative colitis activity in acetic acid-induced ulcerative colitis Wistar rat model assessed as reduction in onset of diarrhea at 400 mg/kg, po administrated for 14 days and measured during initial 8 to 9 days of treatment; format: functional, organism-based; settings: time 8-9 day
Rattus norvegicus [15] = experiment: Anti-ulcerative colitis activity in acetic acid-induced Wistar rat ulcerative colitis model assessed as reduction in infiltration of inflammatory cells in colon at 400 mg/kg, po administrated for 14 days by microscopic analysis; format: functional, organism-based; settings: time 14.0 day
Rattus norvegicus [16] = experiment: Anti-ulcerative colitis activity in acetic acid-induced ulcerative colitis Wistar rat model assessed as reduction in damage of mucosa in colon at 400 mg/kg, po administrated for 14 days by microscopic analysis; format: functional, organism-based; settings: time 14.0 day
Rattus norvegicus [17] = experiment: Anti-ulcerative colitis activity in acetic acid-induced ulcerative colitis Wistar rat model assessed as reduction in sub-mucosal edema in colon at 400 mg/kg, po administrated for 14 days by microscopic analysis; format: functional, organism-based; settings: time 14.0 day
Rattus norvegicus [18] = experiment: Anti-ulcerative colitis activity in acetic acid-induced ulcerative colitis Wistar rat model assessed as mild deformation of mucosal layer with disruption of epithelium in colon at 400 mg/kg, po administrated for 14 days by microscopic analysis; format: functional, organism-based; settings: time 14.0 day
Rattus norvegicus [19] = experiment: Anti-ulcerative colitis activity in acetic acid-induced ulcerative colitis Wistar rat model assessed as reduction in blood content in feces with parrot green to green dotted colour at 400 mg/kg,po administrated for 14 days; format: functional, organism-based; settings: time 14.0 day

| SMILES | Activity (Rattus norvegicus [1]) | Activity [2] | Activity [3] | Activity [4] | Activity [5] | Activity (Rattus norvegicus [6]) | Activity (Rattus norvegicus [7]) | Activity (Rattus norvegicus [8]) | Activity (Rattus norvegicus [9]) | Activity (Rattus norvegicus [10]) | Activity (Rattus norvegicus [11]) | Activity (Rattus norvegicus [12]) | Activity (Rattus norvegicus [13]) | Activity (Rattus norvegicus [14]) | Activity (Rattus norvegicus [15]) | Activity (Rattus norvegicus [16]) | Activity (Rattus norvegicus [17]) | Activity (Rattus norvegicus [18]) | Activity (Rattus norvegicus [19]) |
| --- | --- | --- | --- | --- | --- | --- | --- | --- | --- | --- | --- | --- | --- | --- | --- | --- | --- | --- | --- |
| Cc1cc(=O)oc2c(/N=N/c3ccc(O)c(C(=O)O)c3)c(O)ccc12 | Active | Toxic | Non-Toxic | Non-Toxic | Non-Toxic | Active | Active | Active | Active | 92% | Active | Active | Active | Active |  |  |  |  |  |
| Nc1ccc(O)c(C(=O)O)c1 [MESALAMINE] |  |  |  |  |  | Active |  |  |  | 88% | Active | Active | Active | Active | Active | Active | Active | inactive | Active |

— ChEMBL document CHEMBL4814055, “Design, synthesis and molecular modeling studies of novel mesalamine linked coumarin for treatment of inflammatory bowel disease” (Bioorg Med Chem Lett, 2021)
